Earlier results as cited in patent publication US20210115493A1, “METHODS FOR DETERMINING A DRUG DOSING REGIMEN” (Clear Creek Bio, Inc., priority 2019, published 2021).

Legend:
[1] = test system: mouse model of AML
[2] = test system: solid tumor malignancies; conditions: administered over a 5-day period followed by a 3-week gap, or once per week for three weeks followed by a 1-week gap

SMILES: Cc1c(-c2ccc(-c3ccccc3F)cc2)nc2ccc(F)cc2c1C(=O)O [brequinar, 6-fluoro-2-(2′-fluoro-1,1′biphenyl-4-yl)-3-methyl-4-quinoline carboxylic acid]
- adverse effects of daily administration of high doses [1]: weight loss, anemia, and thrombocytopenia
- efficacy in treatment of solid tumor malignancies [2]: ineffective
